Twelve compounds from patent US11584747B2, “Substituted pyridopyrimidinonyl compounds useful as T cell activators” (BRISTOL-MYERS SQUIBB COMPANY, priority 2019, dated 2023) can be followed below.

Like-named read-outs stand apart in the source and are kept apart here.

In one test the target is human DGKζ (Homo sapiens (Human), UniProt Q13574). As to the kind of experiment: DGKζ LIPGLO assay (extruded liposome substrate, ADP-Glo luminescence). Conditions: liposome assay; read-out: DGK zeta LIPGLO IC50. In kind it is biochemical.
Chain of human DGKζ (Q13574 other isoform, or with tags, fused parts or gaps): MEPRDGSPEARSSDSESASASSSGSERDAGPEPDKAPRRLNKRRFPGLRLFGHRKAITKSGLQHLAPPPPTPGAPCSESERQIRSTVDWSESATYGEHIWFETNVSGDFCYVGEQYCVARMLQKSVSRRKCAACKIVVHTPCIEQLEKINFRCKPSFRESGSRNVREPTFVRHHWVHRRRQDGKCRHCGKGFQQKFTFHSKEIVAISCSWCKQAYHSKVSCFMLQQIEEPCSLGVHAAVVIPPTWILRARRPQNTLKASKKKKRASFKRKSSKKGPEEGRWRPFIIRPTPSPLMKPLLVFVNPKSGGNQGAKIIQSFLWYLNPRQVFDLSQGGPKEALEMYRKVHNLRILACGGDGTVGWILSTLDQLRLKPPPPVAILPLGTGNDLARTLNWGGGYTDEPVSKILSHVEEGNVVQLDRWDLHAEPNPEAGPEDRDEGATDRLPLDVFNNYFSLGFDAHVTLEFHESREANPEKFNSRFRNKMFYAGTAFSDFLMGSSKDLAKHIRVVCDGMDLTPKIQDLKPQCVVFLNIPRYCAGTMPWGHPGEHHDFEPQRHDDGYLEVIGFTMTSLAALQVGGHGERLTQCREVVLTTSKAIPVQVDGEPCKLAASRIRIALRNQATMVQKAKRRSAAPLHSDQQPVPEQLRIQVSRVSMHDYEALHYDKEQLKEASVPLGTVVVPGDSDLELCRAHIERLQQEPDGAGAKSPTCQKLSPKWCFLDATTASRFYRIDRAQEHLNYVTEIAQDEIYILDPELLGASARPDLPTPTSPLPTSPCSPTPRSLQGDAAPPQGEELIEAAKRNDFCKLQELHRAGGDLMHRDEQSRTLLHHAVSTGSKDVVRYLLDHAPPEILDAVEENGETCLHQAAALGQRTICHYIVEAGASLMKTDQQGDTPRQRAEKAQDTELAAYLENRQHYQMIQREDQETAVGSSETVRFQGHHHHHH
The target of a further test is human DGKα (Homo sapiens (Human), UniProt P23743). As to the kind of experiment: DGKα LIPGLO assay (extruded liposome substrate, ADP-Glo luminescence). In kind it is biochemical. Conditions: liposome assay; read-out: DGK alpha LIPGLO IC50.
Chain of human DGKα (P23743 whole entry, looked up): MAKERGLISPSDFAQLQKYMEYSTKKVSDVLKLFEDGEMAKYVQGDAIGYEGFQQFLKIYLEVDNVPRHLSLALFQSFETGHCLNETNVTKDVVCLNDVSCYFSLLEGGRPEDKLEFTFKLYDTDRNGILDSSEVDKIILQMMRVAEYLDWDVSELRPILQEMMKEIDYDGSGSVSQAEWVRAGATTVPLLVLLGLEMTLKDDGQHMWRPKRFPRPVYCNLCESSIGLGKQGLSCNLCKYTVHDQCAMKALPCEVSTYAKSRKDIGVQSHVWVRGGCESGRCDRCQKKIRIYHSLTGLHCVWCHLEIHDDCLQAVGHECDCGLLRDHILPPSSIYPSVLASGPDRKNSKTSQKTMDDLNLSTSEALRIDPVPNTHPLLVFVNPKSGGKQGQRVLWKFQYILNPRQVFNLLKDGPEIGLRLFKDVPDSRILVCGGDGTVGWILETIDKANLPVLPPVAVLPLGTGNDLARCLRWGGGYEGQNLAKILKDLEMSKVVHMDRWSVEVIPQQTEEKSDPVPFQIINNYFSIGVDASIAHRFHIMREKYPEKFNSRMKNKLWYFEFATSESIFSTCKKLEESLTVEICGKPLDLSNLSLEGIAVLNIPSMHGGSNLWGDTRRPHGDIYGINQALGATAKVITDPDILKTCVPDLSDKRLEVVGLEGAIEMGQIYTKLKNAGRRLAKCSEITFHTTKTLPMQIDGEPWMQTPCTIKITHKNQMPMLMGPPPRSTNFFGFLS
For test [1], the system named is human venous whole blood (IFN-γ). As to the kind of experiment: Human whole blood IFN-γ assay. In kind it is cell-based. To be noted: whole blood, normalized to 3 μM reference compound as 100% activation, read-out: IFN-γ Whole Blood Normalized EC50. The method, then:
Human venous whole blood (22.5 μL per well), obtained from healthy donors, was pre-treated with compounds for one hour at 37° C. in a humidified 95% air/5% CO2 incubator. The blood was stimulated with 2.5 μL anti-human CD3 and anti-CD28 mAb at a final concentration of 1 μg/mL each for 24 hours at 37° C. IFN-γ in the supernatants was measured using AlphLISA kit (Cat #AL217).

The term IC50 denotes the concentration that inhibits the measured activity by half. Broadly, the EC50 is the midpoint of the concentration-response curve.

For the compound `CC[C@@H]1CN(c2nc(=O)n(C)c3ccc(C#N)nc23)[C@@H](CC)CN1Cc1ccc(OC(F)(F)F)cc1` [Example 22, 4-((2S,5R)-2,5-diethyl-4-(4-(trifluoromethoxy)benzyl)piperazin-1-yl)-1-methyl-2-oxo-1,2-dihydropyrido[3,2-d]pyrimidine-6-carbonitrile], the IC50 was 180 nM at human DGKζ and 2 nM at human DGKα. In test [1] (Homo sapiens), the EC50 is 380 nM.
With `CC[C@@H]1CN(c2nc(=O)n(C)c3ccc(C#N)nc23)[C@@H](C)CN1C(C)c1ccc(OC(F)(F)F)cc1` (single isomer, unassigned) [Example 49], the IC50 at human DGKζ was determined as 850 nM; at human DGKα, 390 nM. Moreover, the EC50 in test [1] stood at 2340 nM.
For `CC[C@@H]1CN(c2nc(=O)n(C)c3ccc(C#N)nc23)[C@@H](C)CN1C(C)c1ccc(C2CC2)cc1F` (single isomer, unassigned) [Example 91], the values for the IC50 on human DGKζ and on human DGKα were 44 nM and 330 nM, respectively. The EC50 in test [1] (Homo sapiens) turned out to be 190 nM.
Regarding `CC[C@H]1CN(C(C)c2ccc(C(F)(F)F)cc2)[C@H](CC)CN1c1nc(=O)n(C)c2ccc(C#N)nc12` (single isomer, unassigned) [Example 21], the IC50 stood at 1010 nM on human DGKζ and 386 nM at human DGKα. For the same compound, the EC50 in test [1] was 2850 nM.
With `C[C@@H]1CN(c2nc(=O)n(C)c3ccc(C#N)nc23)[C@@H](C)CN1C(c1ccc(F)cc1)c1ccon1` (single isomer, unassigned) [Example 162], the values for the IC50 on human DGKζ and on human DGKα were 1150 nM and 56 nM, respectively. For the same compound, the EC50 in test [1] stood at 1850 nM.
For `CC[C@H]1CN(C(C)c2ccc(C(C)(C)C#N)cc2)[C@H](CC)CN1c1nc(=O)n(C)c2ccc(C#N)nc12` (stereo partly drawn) [Example 197, 4-((2S,5R)-4-(1-(4-(2-cyanopropan-2-yl)phenyl)ethyl)-2,5-diethylpiperazin-1-yl)-1-methyl-2-oxo-1,2-dihydropyrido[3,2-d]pyrimidine-6-carbonitrile], in that order: 220 nM, 1470 nM and 310 nM.
For `CC[C@@H]1CN(c2nc(=O)n(C)c3ccc(C#N)nc23)[C@@H](C)CN1C(c1ccc(F)cc1)c1ccccn1` (single isomer, unassigned) [Example 87], in that order: 310 nM, 28 nM and 440 nM.
For `[2H]C([2H])([2H])Oc1ccc(C(C)N2C[C@H](CC)N(c3nc(=O)n(C)c4ccc(C#N)nc34)C[C@H]2CC)cc1` (single isomer, unassigned) [Example 190], in that order: 17 nM, 29 nM and 9 nM.
Regarding `C[C@@H]1CN(c2nc(=O)n(C)c3ccc(C#N)nc23)[C@@H](C)CN1Cc1ccc2c(c1)OC(F)(F)O2` [Example 135, 4-((2S,5R)-4-((2,2-difluorobenzo[d][1,3]dioxol-5-yl)methyl)-2,5-dimethylpiperazin-1-yl)-1-methyl-2-oxo-1,2-dihydropyrido[3,2-d]pyrimidine-6-carbonitrile], the figures for the IC50 on human DGKζ and at human DGKα were 1410 nM and 4500 nM, respectively. Moreover, the EC50 in test [1] (Homo sapiens) is 10700 nM.
In the case of `CC[C@@H]1CN(c2nc(=O)n(C)c3ccc(C#N)nc23)[C@@H](C)CN1C(C)c1ccc(OC(C)C)cc1` (single isomer, unassigned) [Example 53], the figures for the IC50 at human DGKζ and at human DGKα were 79 nM and 630 nM, respectively. Moreover, the EC50 in test [1] stood at 200 nM.
As for `CCC(c1ccc2c(c1)OC(F)(F)O2)N1C[C@H](C)N(c2nc(=O)n(C)c3ccc(C#N)nc23)C[C@H]1CC` (single isomer, unassigned) [Example 79], the IC50 on human DGKζ is 23 nM; on human DGKα, 300 nM. Also, in test [1] (Homo sapiens), the EC50 stood at 300 nM.
On to `CC[C@H]1CN(C(C)c2ccc(OC(F)(F)F)c(F)c2)[C@H](CC)CN1c1nc(=O)n(C)c2ccc(C#N)nc12` (single isomer, unassigned) [Example 31], for which the results for the IC50 at human DGKζ and on human DGKα were 960 nM and 1700 nM, respectively. Further, the EC50 in test [1] was determined as 270 nM.
